Source: US20210171568A1, “CRYSTALLINE FORMS OF SELECTIVE PROGESTERONE RECEPTOR MODULATOR, PROCESSES FOR PREPARATION THEREOF” (Crystal Pharmaceutical (Suzhou) Co., Ltd., priority 2017, published 2021)
“Also recorded” adds a separate entry of the source. Read-outs that look alike come from different tables or passages of the source.

What was measured:
Assay type in all cases: physicochemical
[1] = Hygroscopicity by dynamic vapor sorption (DVS); conditions: for Weight gain under 80% Relative Humidity (Hygroscopicity): DVS, 25° C., 80% RH, about 10 mg of sample; for hygroscopicity as share of that of the prior art solid: relative to prior art solid, weight gain at 80% RH
Protocol: Dynamic Vapor Sorption (DVS) was collected via an SMS (Surface Measurement Systems Ltd.) intrinsic DVS instrument. Its control software is DVS-Intrinsic control software, and its analysis software is DVS-Intrinsic Analysis software. Typical Parameters for DVS test are as follows: • Temperature: 25° C. • Gas and flow rate: N2, 200 mL/min • dm/dt: 0.002%/min • RH range: 0% RH to 95% RH
Dynamic vapor sorption (DVS) was applied to test hygroscopicity of Form CS2, Form CS4 and the prior art amorphous with about 10 mg of samples.

[2] = Residual solvents test
Protocol: Residual solvents of Form CS2, Form CS4 and the prior art amorphous were tested. […] According to the guideline of the International Council for Harmonization (ICH) on residual solvents, dichloromethane belongs to Class 2 solvents, and the residual solvent content must not exceed 600 ppm. It can be seen that the residue of dichloromethane in the amorphous solid is much higher than the limits of ICH guideline, and the amorphous not suitable for use as drug substance.

[3] = Physical stability on storage (crystalline form by XRPD before and after storage)
Protocol: (§1) Samples of Form CS2, Form CS4 and the prior art amorphous were stored under condition of 25° C./60% RH (open). Crystalline form and chemical impurity were tested.
(§2) Samples of Form CS2, Form CS4 and the prior art amorphous were stored under condition of 40° C./75% RH (open). Crystalline form and chemical impurity were tested.
(§3) Samples of Form CS2, Form CS4 and the prior art amorphous were stored under condition of 60° C./75% RH (open). Crystalline form and chemical impurity were tested.

[4] = Chemical stability on storage (purity / chemical impurity); conditions: for Change of Purity: versus initial purity
Protocol: as §1, §2, §3

[5] = Particle size distribution; conditions: in Isopar G containing 0.2% lecithin
Protocol: Form CS2 and Form CS4 of the present disclosure were added into 10 mL of Isopar G (containing 0.2% lecithin). The mixture was mixed thoroughly and transferred into the SDC. The measurement was started when the sample amount indicator is in appropriate position. The average particle diameter calculated by volume, the diameter at which 10% mass is comprised of smaller particles, the diameter at which 50% mass is comprised of smaller particles and the diameter at which 90% mass is comprised of smaller particles were obtained in particle size distribution test. Subsequently, the particle size distribution plot of crystalline forms was obtained.
MV: Average particle diameter calculated by volume.
D10: the size in microns below which 10 percent of the particles reside on a volume basis.
D50: the size in microns below which 50 percent of the particles reside on a volume basis, also known as the median diameter.
D90: the size in microns below which 90 percent of the particles reside on a volume basis.

[6] = 60° C./75% RH (open), 2 weeks, listed as prior art amorphous

| Weight gain under 80% Relative Humidity (Hygroscopicity) [1] [%] | Residual solvents (in words) [2] | Purity after 6 Months ([4]; 25° C./60% RH (open), 6 months) [%] | Change of Purity ([4]; 25° C./60% RH (open), 6 months) [%] | Purity after 3 Months ([4]; 40° C./75% RH (open), 3 months) [%] | Change of Purity ([4]; 40° C./75% RH (open), 3 months) [%] | Purity after 2 Weeks ([4]; 60° C./75% RH (open), 2 weeks) [%] | Change of Purity ([4]; 60° C./75% RH (open), 2 weeks) [%] | hygroscopicity as share of that of the prior art solid [1] | D10 [5] [μm] | D50 [5] [μm] | D90 [5] [μm] | MV, average particle diameter calculated by volume [5] [μm] | Compound | Solid Form after Storage ([3]; 25° C./60% RH (open), 6 months) | Solid Form after Storage ([3]; 40° C./75% RH (open), 6 months) | Solid Form after Storage ([3]; 60° C./75% RH (open), 2 weeks) | also measured |
| --- | --- | --- | --- | --- | --- | --- | --- | --- | --- | --- | --- | --- | --- | --- | --- | --- | --- |
| 1.89 | significantly higher than specification | 97.88 | 0.80 | 97.60 | 1.08 | 97.70 | 0.98 | – | – | – | – | – | C[C@]12C[C@H](c3ccc(S(C)(=O)=O)cc3)C3=C4CCC(=O)C=C4CC[C@H]3[C@@H]1CC[C@@]2(O)C(F)(F)C(F)(F)F [Amorphous, (11β, 17β)-17-hydroxy-11-[4-(methylsulfonyl)phenyl]-17-(pentafluoroethyl)estra-4,9-diene-3-one, reference compound] | Amorphous | Amorphous + Form CS2 | Amorphous + Form CS2 | Weight gain under 80% Relative Humidity (Hygroscopicity) ([1]; listed as prior art solids): up to 1.89%; dichloromethane residue ([2]; ICH limit 600 ppm): 64185 ppm; Residual solvents (in words) ([2]; listed as prior art): exceeds the standard; Solid Form after Storage ([3]; 40° C./75% RH (open), 6 months, listed as prior art amorphous): partially converted to Form CS2; Solid Form after Storage ([3]; 40° C./75% RH (open), 6 months, listed as prior art solid): partially converts to Form CS2; Solid Form after Storage [3, 6]: partially converted to Form CS2; Solid Form after Storage ([3]; 60° C./75% RH (open), 2 weeks, listed as prior art solid): partially converts to Form CS2; Change of Purity ([4]; 25° C./60% RH (open), 6 months, listed as amorphous): 0.80%; Change of Purity ([4]; 25° C./60% RH (open), 6 months, listed as prior art amorphous): 0.80%; stability on storage (in words) ([4]; 25° C./60% RH, 40° C./75% RH and 60° C./75% RH): unstable; Change of Purity ([4]; 40° C./75% RH (open), 3 months, listed as amorphous): 1.08%; Change of Purity ([4]; 40° C./75% RH (open), 3 months, listed as prior art amorphous): 1.08%; Change of Purity ([4]; 60° C./75% RH (open), 2 weeks, listed as amorphous): 0.98%; Change of Purity [4, 6]: 0.98% |
| 0.12 | almost no residual solvent | 99.31 | 0.13 | 99.42 | 0.02 | 99.47 | 0.03 | less than 10% | 2.32 | 6.20 | 23.12 | 11.41 | C[C@]12C[C@H](c3ccc(S(C)(=O)=O)cc3)C3=C4CCC(=O)C=C4CC[C@H]3[C@@H]1CC[C@@]2(O)C(F)(F)C(F)(F)F [Form CS4, (11β, 17β)-17-hydroxy-11-[4-(methylsulfonyl)phenyl]-17-(pentafluoroethyl)estra-4,9-diene-3-one] | remain unchanged; also recorded: Form CS4 | remain unchanged; also recorded: Form CS4 | remain unchanged; also recorded: Form CS4 | Change of Purity ([4]; 25° C./60% RH (open), 6 months, listed as CS4): 0.13%; Change of Purity ([4]; 40° C./75% RH (open), 3 months, listed as CS4): 0.02%; Change of Purity ([4]; 60° C./75% RH (open), 2 weeks, listed as CS4): 0.03% |
| 0.23 | almost no residual solvent | 98.58 | 0.06 | 98.37 | 0.27 | 98.59 | 0.05 | less than 15% | 3.09 | 8.41 | 27.45 | 13.16 | C[C@]12C[C@H](c3ccc(S(C)(=O)=O)cc3)C3=C4CCC(=O)C=C4CC[C@H]3[C@@H]1CC[C@@]2(O)C(F)(F)C(F)(F)F [Form CS2, (11β, 17β)-17-hydroxy-11-[4-(methylsulfonyl)phenyl]-17-(pentafluoroethyl)estra-4,9-diene-3-one] | remain unchanged; also recorded: Form CS2 | remain unchanged; also recorded: Form CS2 | remain unchanged; also recorded: Form CS2 | Change of Purity ([4]; 25° C./60% RH (open), 6 months, listed as CS2): 0.06%; Change of Purity ([4]; 40° C./75% RH (open), 3 months, listed as CS2): 0.27%; Change of Purity ([4]; 60° C./75% RH (open), 2 weeks, listed as CS2): 0.05% |
